Assay results published in patent publication US7906488B2, “Sphingolipids in treatment and prevention of steatosis and of steatosis or of hepatotoxicity and its sequelae” (Nederlandse Organisatie Voor …, priority 2004, dated 2011).

What was measured:
[1] = system: APOE*3Leiden mice; assay: Effect of dietary sphingolipids on plasma C and TG levels (0.1, 0.2, 0.4% in diet); assay type: in vivo; conditions: 0.4% sphingolipid in diet, compared with 0.2%
Description: Sphingolipids: The three sphingolipids that represent the most abundant natural complex sphingolipid classes and the three of the simplest natural sphingolipids, the sphingoid bases that can be formed by enzymatic breakdown of complex sphingolipids in the intestine were used. Sphingomyelin (mainly N-palmitoyl-sphingosine-1-phosphocholine) from egg was obtained from Larodan Fine Chemicals (Stockholm, Sweden). Yeast-derived (semi)synthetic ceramide III (N-stearoyl-phytosphingosine), cerebroside (N-stearoyl-phytosphingosine-1-glucose) and phytosphingosine (PS) were from Cosmoferm BV (Delft, the Netherlands). Sphinganine and sphingosine were from Avanti Polar Lipids (Albaster, Ala.). Animals and diets: Heterozygous female APOE*3Leiden transgenic mice (Van Vlijmen et al. 1994. J. Clin. Invest 93:1403-1410.) (6 months old) were fed a Western-type diet (Hope Farms, Woerden, the Netherlands) containing 15% cocoa butter, 0.25% cholesterol, 1% corn oil, 40.5% sucrose, 20% acid casein, 10% corn starch and 5.95% cellulose (all w/w) for 5 weeks. The mice were allowed free access to food and water. Body weight and food intake were monitored weekly. In the first experiment (FIG. 2), the mice were randomized after these 5 weeks into 7 groups (n=6), based on plasma cholesterol, triglycerides, and body weight. Subsequently, the mice were fed for three weeks the same diet without or with 0.1% (w/w) phytosphingosine (PS), sphingosine, sphinganine, cerebroside, ceramide III, or sphingomyelin. […]
Plasma parameters: Tail blood samples were collected in EDTA-coated cups, or in paraoxon-coated capillaries to prevent lipolysis as described in Zambon et al. 1993 (Zambon et al. 1993. J. Lipid Res. 34:1021-1028). Plasma lipid parameters were determined using commercial kits for total cholesterol (C) Chol R1 from Roche Diagnostics, Mannheim, Germany), non-esterified free fatty acids (FFA) (NEFA-C; Wako chemicals, Neuss, Germany), Total triglycerides (TG) (Triglyceride GPO-Trinder; Sigma, St. Louis, Mo.), β-hydroxybutyrate (β-HB; Sigma) and ALAT (Reflotron GPT; Roche). Serum amyloid A (SAA) was measured by ELISA (Biosource, Nivelles, Belgium) and fibrinogen by sandwich ELISA, as described in Koopman et al., 2005 (Koopman et al. 2005. Fibrinol Proteol 11:19). […] Hepatic VLDL-TG production: The rate of hepatic VLDL-TG production, de novo apoB secretion, and VLDL composition were determined in overnight-fasted mice. […] After 30 min, the animals received a Triton WR1339 injection (Tyloxapol, Sigma; 500 mg/kg body weight in 100 μl saline) to prevent systemic lipolysis of newly-secreted hepatic VLDL-TG (Aalto-Setala et al. 1992. J. Clin. Invest 90:1889-1900.27) Blood samples were drawn at 0, 15, 30, 60, and 90 min after Triton WR1339 injection and plasma TG concentrations were determined. […]

[2] = system: apoE3*-Leiden mice; assay: Example 2 overview: high fat high cholesterol W-diet with 1% phytosphingosine, 4 weeks; assay type: in vivo
Procedure: The experiment as described in example 1 was repeated several times but using 1% phytosphingosine as a supplement to the W-diet. Each time, one group (control group, consisting of 6 or 12 apoE3*-Leiden mice) was fed the high fat high cholesterol W-diet. Another group (treatment group, consisting of 6 or 12 apoE3*-Leiden mice), was fed the same high fat high cholesterol W-diet diet supplemented with 1% phytosphingosine.
In all mice the following parameters were determined (after 4 hours of fasting) after a diet period of 4 weeks: plasma total cholesterol (PTC), plasma triglycerides (PTG), plasma free fatty acids (PFFA), liver total cholesterol (LTC), liver triglycerides (LTG), liver cholesteryl esters (LCE), serum amyloid A (SAA) (mg/ml), fibrinogen (in mg/ml), body weight (in g), liver weight (in g), heart weight (in g), ALAT (in U/L).

For `CCCCCCCCCCCCCC[C@@H](O)[C@@H](O)[C@@H](N)CO` [PS, phytosphingosine], the “Plasma C” value [1] was “decreased even more”, the “Plasma lipid levels (total cholesterol, triglycerides and free fatty acids) vs control” value ([2]; 1% PS in W-diet) was “significantly decreased” and the “Liver lipid levels vs control” value ([2]; 1% PS in diet W) was “significantly decreased”. The ALAT vs control ([2]; 1% PS in the diet) was “significantly lowered”, the “Plasma level of fibrinogen vs control” value ([2]; 1% phytosphingosine in W-diet) was “increased” and the “Levels of serum amyloid A (SAA) vs control” value ([2]; 1% phytosphingosine in W-diet, 4 hours fasting) was “significantly lower”.
